Where two headings read alike, the source gives them in different places. Non-standard residues stand in square brackets, D forms with d. Residues, ends and D or L forms follow the SMILES beside them. Dmt = Cc1cc(O)cc(C)c1C[C@H](N)C(=O)O; Tic = O=C(O)[C@@H]1Cc2ccccc2CN1; βAla = NCCC(=O)O; Sar = CNCC(=O)O
Assays:
[1] = biological target: 3H-DAMGO binding sites in C57 brain tissue (Mus musculus, UniProt P42866)
[2] = biological target: 125I-IDAPP binding sites in C57/Bl6 brain homogenates (Mus musculus, UniProt P42866)
[3] = biological target: MOR-1 (Mus musculus, UniProt P42866); assay: Competition of 3H-DAMGO binding in CHO cells expressing MOR-1
[4] = test system: MOR-1 variants (Oprm1); conditions: mouse, in vivo; cited from earlier work
[5] = biological target: mMOR (Mus musculus, UniProt P42866); assay: 35S-GTPγS binding in mMOR-CHO membranes; conditions: read-out: Max stimulation (% over basal)
[6] = test system: MOR-1 variants (Oprm1); type: in vivo, mouse; conditions: knockout and/or antisense models; Figs. 2,3,4
[7] = biological target: mDOR (Mus musculus, UniProt P32300); assay: 35S-GTPγS binding in mDOR-CHO membranes; conditions: read-out: Max stimulation (% over basal)
[8] = test system: CD-1 mice; assay: Cross tolerance in morphine pelleted mice, tail flick analgesia; type: in vivo, mouse; conditions: for analgesic ED50: i.c.v., 72 hr
[9] = biological target: spinal cord membranes (WT, E11 KO) (Mus musculus, UniProt P42866); assay: 35S-GTPγS binding in spinal cord membranes
[10] = test system: brain membranes (WT, E11 KO, E1/E11 KO); assay: 35S-GTPγS binding in brain membranes
[11] = biological target: mKOR (Mus musculus, UniProt P33534); assay: 35S-GTPγS binding in mKOR-CHO membranes; conditions: read-out: Max stimulation (% over basal)
[12] = test system: C57Bl/6 wild type (WT) and exon 11 KO (E11 KO) mice; assay: Radiant heat tail flick analgesia in wild type and exon 11 KO mice; type: in vivo, mouse; conditions: for analgesic ED50: tail flick
[13] = biological target: mDOR-1 (Mus musculus, UniProt P32300); assay: Competition binding versus 125I-IBNtxA in mDOR-CHO membranes
[14] = biological target: mMOR-1 (Mus musculus, UniProt P42866); assay: Competition binding versus 125I-IBNtxA in mMOR-CHO membranes
[15] = biological target: mKOR-1 (Mus musculus, UniProt P33534); assay: Competition binding versus 125I-IBNtxA in mKOR-CHO membranes
[16] = biological target: 6TM/E11 (Mus musculus, UniProt P42866); assay: Competition binding versus 125I-IBNtxA at the 6TM-containing
[17] = test system: E1/E11 KO and E11 KO mice; conditions: cited from earlier work
[18] = test system: C57Bl/6 wild type (WT) and exon 11 KO (E11 KO) mice; conditions: cited from earlier work
[19] = 0.1 nM 125I-IDAPP, C57/Bl6 brain homogenates, no blockers
[20] = E11 KO mice, supraspinal (i.c.v.; IDAPP also i.t.)

C[C@@H](O)[C@H](NC(=O)[C@H]1NC(=O)[C@H]([C@@H](C)O)NC(=O)[C@H](CCCN=C(N)N)NC(=O)[C@@H](Cc2c[nH]c3ccccc23)NC(=O)[C@H](Cc2ccc(O)cc2)NC(=O)[C@@H](NC(=O)[C@H](N)Cc2ccccc2)CSSC1(C)C)C(N)=O [CTAP, D-Phe-Cys-Tyr-D-Trp-Arg-Thr-Pen-Thr-NH2]
IC50 [1]: 4.1 ± 0.2 nM | Ki [2]: 1.1 ± 0.3 nM | IC50 [3]: 4.8 ± 0.4 nM

Clc1cccc(Cl)c1N=C1NCCN1 [Clonidine]
MOR-1 Variants required for analgesia [4]: 6TM

C[C@@H](NC(=O)[C@@H](N)Cc1ccc(O)cc1)C(=O)NCC(=O)N(C)[C@@H](Cc1ccccc1)C(=O)NCCO [DAMGO, [D-Ala^2,N-MePhe^4,Gly(ol)^5]-enkephalin]
Emax [5]: 396 ± 21% | MOR-1 Variants required for analgesia [6]: 7TM | Emax [7]: -2 ± 7% | analgesic ED50 ([8]; morphine pellet (75 mg free base) CD-1 mice): 1.5 ± 0.47 µg | analgesia in morphine pelleted mice (cross tolerance) ([8]; morphine pelleted versus placebo): cross tolerant with morphine | analgesic ED50 ([8]; placebo pellet CD-1 mice): 0.04 ± 0.02 µg | Hill Slope [2, 19]: −0.9 ± 0.1 | Emax ([9]; read-out: Max stimulation (% over basal), spinal cord, E11 KO): 7 ± 4% | Emax ([9]; read-out: Max stimulation (% over basal), spinal cord, WT): 11 ± 2% | Max stimulation (% over basal) ([10]; E1/E11 KO): −6 ± 1 % over basal | EC50 ([10]; E11 KO): 220 ± 13 nM | Max stimulation (% over basal) ([10]; E11 KO): 19 ± 6 % over basal | EC50 ([10]; WT): 190 ± 8 nM | Max stimulation (% over basal) ([10]; WT): 15 ± 2 % over basal | Emax [11]: -16 ± 8% | analgesic ED50 ([12]; E11 KO mice, i.c.v.): 0.23 µg | analgesic ED50 ([12]; E11 KO mice, i.t.): 0.27 µg | analgesic activity in E11 KO mice ([12]; E11 KO mice, spinal (i.t.)): still elicited a full response | analgesic activity in E11 KO mice [12, 20]: retained full analgesic activity | analgesic ED50 ([12]; WT C57Bl/6 mice, i.c.v.): 0.13 µg | analgesic ED50 ([12]; WT C57Bl/6 mice, i.t.): 0.02 µg

CC[C@H](C)[C@H](NC(=O)[C@H](Cc1ccccc1)NC(=O)[C@H](Cc1ccccc1)NC(=O)[C@@H](C)NC(=O)[C@@H](N)Cc1c(C)cc(O)cc1C)C(N)=O [DAPPI, Dmt-D-Ala-Phe-Phe-Ile-NH2] (H-[Dmt][dA]FFI-NH2)
Ki [13]: 0.3 ± 0.2 nM | Ki [14]: 0.3 ± 0.1 nM | Ki [15]: 7 ± 0.4 nM

C[C@@H](NC(=O)[C@@H](N)Cc1ccc(O)cc1)C(=O)N[C@@H](Cc1ccccc1)C(=O)NCC(=O)N[C@@H](Cc1ccc(O)cc1)C(=O)N1CCC[C@H]1C(=O)N[C@@H](CO)C(N)=O [Dermorphin, Tyr-D-Ala-Phe-Gly-Tyr-Pro-Ser-NH2]
Ki [14]: 4 ± 0.5 nM | Ki [16]: > 500 nM

Cc1cccc([C@H](C)c2cnc[nH]2)c1C [Dexmedetomidine]
MOR-1 Variants required for analgesia [4]: 6TM

NC(=O)[C@H](Cc1ccccc1)NC(=O)[C@H](Cc1c[nH]c2ccccc12)NC(=O)[C@@H]1CCCN1C(=O)[C@@H](N)Cc1ccc(O)cc1 [Endomorphin 1, Tyr-Pro-Trp-Phe-NH2]
MOR-1 Variants required for analgesia [6]: 7TM + 6TM | Emax [7]: -3 ± 1% | Hill Slope [2]: −0.7 ± 0.1 | Max stimulation (% over basal) ([10]; E1/E11 KO): −5 ± 3 % over basal | EC50 ([10]; E11 KO): 17 ± 7 nM | Max stimulation (% over basal) ([10]; E11 KO): 23 ± 1 % over basal | EC50 ([10]; WT): 222 ± 31 nM | Max stimulation (% over basal) ([10]; WT): 39 ± 2 % over basal | analgesic activity in E11 KO mice [12, 20]: eliminated the analgesic response | analgesic ED50 ([12]; WT C57Bl/6 mice, i.c.v.): 3.39 µg

NC(=O)[C@H](Cc1ccccc1)NC(=O)[C@H](Cc1ccccc1)NC(=O)[C@@H]1CCCN1C(=O)[C@@H](N)Cc1ccc(O)cc1 [Endomorphin 2, Tyr-Pro-Phe-Phe-NH2]
MOR-1 Variants required for analgesia [6]: 7TM + 6TM | Emax [7]: -3 ± 2% | Max stimulation (% over basal) ([10]; E1/E11 KO): 1 ± 1 % over basal | EC50 ([10]; E11 KO): 103 ± 8 nM | Max stimulation (% over basal) ([10]; E11 KO): 24 ± 2 % over basal | EC50 ([10]; WT): 151 ± 43 nM | Max stimulation (% over basal) ([10]; WT): 35 ± 1 % over basal | analgesic activity in E11 KO mice [12, 20]: eliminated the analgesic response | analgesic ED50 ([12]; WT C57Bl/6 mice, i.c.v.): 1.14 µg

O=C(N[C@@H]1CC[C@@]2(O)[C@H]3Cc4ccc(O)c5c4[C@@]2(CCN3CC2CC2)[C@H]1O5)c1cccc(I)c1 [IBNtxA, 3-iodobenzoyl-6β-naltrexamide]
MOR-1 Variants required for analgesia [4]: 6TM | rescue of analgesia by mMOR-1G lentivirus in E1/E11 KO mice [17]: able to rescue

C[C@H]1[C@H]2C(=O)c3ccc(O)cc3[C@@]1(C)CCN2CC1CC1 [Ketocyclazocine]
MOR-1 Variants required for analgesia [4]: 6TM

CN1CC[C@]23c4c5ccc(O)c4O[C@H]2[C@@H](O[C@@H]2O[C@H](C(=O)O)[C@@H](O)[C@H](O)[C@H]2O)C=C[C@H]3[C@H]1C5 [M6G]
Hill Slope [2]: −0.6 ± 0.1 | Ki [2]: 0.7 ± 0.3 nM

CN1CC[C@]23c4c5ccc(O)c4O[C@H]2[C@@H](O)C=C[C@H]3[C@H]1C5 [Morphine]
analgesic activity in E11 KO mice [18]: maintaining full analgesic activity

Oc1ccc2c3c1O[C@H]1c4[nH]c5ccccc5c4C[C@@]4(O)[C@@H](C2)N(CC2CC2)CC[C@]314 [Naltrindole]
Ki [2, 19]: > 1000 nM

Oc1ccc2c3c1O[C@H]1c4[nH]c5c(c4C[C@@]4(O)[C@@H](C2)N(CC2CC2)CC[C@]314)C[C@@]1(O)[C@H]2Cc3ccc(O)c4c3[C@@]1(CCN2CC1CC1)[C@H]5O4 [NorBNI]
Ki [2, 19]: > 1000 nM

C=CCN1C[C@H](C)N([C@H](c2ccc(C(=O)N(CC)CC)cc2)c2cccc(OC)c2)C[C@H]1C [SNC80]
MOR-1 Variants required for analgesia [4]: 7TM + 6TM | Ki [2]: > 1000 nM

COC(=O)[C@@H]1C[C@H](OC(C)=O)C(=O)[C@H]2[C@@]1(C)CC[C@H]1C(=O)O[C@H](c3ccoc3)C[C@]21C [Salvinorin A]
MOR-1 Variants required for analgesia [4]: 6TM

C[C@@H](NC(=O)[C@@H](N)Cc1ccc(O)cc1)C(=O)N[C@@H](Cc1ccccc1)C(=O)NCCC(N)=O [TAPA, Tyr-D-Ala-Phe-βAla-NH2] (H-Y[dA]F[βAla]-NH2)
Ki [13]: 48 ± 1 nM | Ki [14]: 11 ± 0.3 nM | Ki [15]: > 500 nM | Ki [16]: 40 ± 7 nM

C[C@@H](NC(=O)[C@@H](N)Cc1ccc(O)cc1)C(=O)N[C@@H](Cc1ccccc1)C(=O)N[C@@H](Cc1ccccc1)C(N)=O [TAPP, Tyr-D-Ala-Phe-Phe-NH2] (H-Y[dA]FF-NH2)
Ki [13]: 3 ± 0.1 nM | Ki [14]: 3 ± 0.2 nM | Ki [15]: > 500 nM | Ki [16]: 130 ± 16 nM

CC[C@H](C)[C@H](NC(=O)[C@H](Cc1ccccc1)NC(=O)[C@H](Cc1ccccc1)NC(=O)[C@@H](C)NC(=O)[C@@H](N)Cc1ccc(O)cc1)C(N)=O [TAPPI, Tyr-D-Ala-Phe-Phe-Ile-NH2] (H-Y[dA]FFI-NH2)
Ki [13]: 6 ± 0.1 nM | Ki [14]: 0.2 ± 0.2 nM | Ki [16]: 100 ± 10 nM

CC(C)[C@H](NC(=O)[C@H](Cc1ccccc1)NC(=O)[C@H](Cc1ccccc1)NC(=O)[C@@H](C)NC(=O)[C@@H](N)Cc1ccc(O)cc1)C(N)=O [TAPPV, Tyr-D-Ala-Phe-Phe-Val-NH2] (H-Y[dA]FFV-NH2)
Ki [14]: > 500 nM | Ki [16]: > 500 nM

C[C@@H](NC(=O)[C@@H](N)Cc1ccc(O)cc1)C(=O)N[C@@H](Cc1ccccc1)C(=O)N(C)CC(N)=O [TAPS, Tyr-D-Ala-Phe-Sar-NH2] (H-Y[dA]F[Sar]-NH2)
Ki [13]: 35 ± 2 nM | Ki [14]: 6 ± 0.7 nM | Ki [15]: > 500 nM | Ki [16]: 50 ± 8 nM

N[C@@H](Cc1ccc(O)cc1)C(=O)N1Cc2ccccc2C[C@H]1C(=O)N[C@@H](Cc1ccccc1)C(=O)N[C@@H](Cc1ccccc1)C(=O)O [TIPP, Tyr-Tic-Phe-Phe-OH] (H-Y[Tic]FF-OH)
Ki [14]: > 500 nM | Ki [15]: > 500 nM | Ki [16]: 163 ± 12 nM

DPDPE
MOR-1 Variants required for analgesia [4]: 7TM + 6TM

— PMC5177531 (ACS chemical neuroscience, 2016)
